Where two headings read alike, the source gives them in different places.
Legend:
HiBiT-tagged HTT protein = assay: HiBiT protein abundance assay, HTT (K562 HiBiT knock-in); format: cell-based, human; conditions: HiBiT knock-in cells, 24 hours
Experimental: (§1) Compounds described herein were used to screen for effects on quantitative protein abundance using a HiBit assay system (Promega). Quantitative protein abundance was determined by measuring the protein levels of HiBit-tagged protein targets expressed in cell culture via luminescence using the Nano-Glo HiBiT Lytic Detection System, which uses a split complementation assay format to reconstitute NanoBiT enzyme to generate a luminescent signal. A protein abundance assay was developed such that endogenous protein targets could be modified with the HiBiT peptide tag and their abundance could be assessed after compound treatment. Briefly, K562 cell lines containing a HiBiT-modification were treated with various compounds described herein (e.g., compounds of Formulas (I), or (II)). After treatment for 24 hours, the protein abundance of a specific target was determined by measuring luminescence.
(§2) • Promega Nano-Glo HiBiT Lytic Detection System (cat #N3030) • Corning 384-well TC-treated microplates (cat #3570)
(§3) Cells were maintained in IMDM with 10% FBS. Before the assay, cells were diluted with […] growth media (IMDM+1% FBS media) and were seeded in a 384-well plate at a density of 10000 cells/well (for each cell line listed in Table 6). Each compound was prepared as a 10-point 3-old serial dilution in DMSO with the top dose at a final concentration of 10 μM in the well. Unmodified K562 cells were added at the previously specified density with DMSO to serve as an assay baseline and positive control (PC) and DMSO only with the respective modified cell lines was added to the negative control (NC) columns. Final DMSO concentration was kept at or below 0.25%. Treated cell plates were placed in an incubator at 37° C. with 5% CO2 for 24 hours. After 24 hours, 25 μL of Complete HiBit Lytic reagent was added to each well at room temperature (e.g. one plate requiring 10 ml Lytic Buffer, 100 μL LgBiT Protein, 200 μL Lytic Substrate), shaken for 5 minutes at 600 RPM, then left to sit for 10 minutes for signal to stabilize before reading on a Spark Cyto plate reader (Tecan) with a 500 ms measurement time.
(§4) To determine compound effects on protein abundance of each target in Table 6, the percent response for each respective cell line was calculated at each compound concentration as follows:
(§5) For the normalized response at each concentration, a four-parameter logistical regression was fit to the data and the response was interpolated at the 50% value to determine a concentration for protein abundance at 50% (IC50) the untreated control.

HiBiT-tagged MYB protein = assay: HiBiT protein abundance assay, MYB (K562 HiBiT knock-in); format: cell-based, human; conditions: HiBiT knock-in cells, 24 hours
Experimental: as §1, §2, §3, §4, §5

K562 cells = assay: Cell viability, Cell Titer Glo 2.0 assay, K562; conditions: 72 hours
Experimental: Compounds described herein were screened for toxicity in K562 (human chronic myelogenous leukemia) and SH-SY5Y (human neuroblastoma) cells using a Cell Titer Glo 2.0 assay.
• Promega CellTiter-Glo® 2.0 Cell Viability Assay (cat #G9241) • Corning 384-well TC-treated microplates (cat #3570)
Cells were plated at 500 cells/well (K562 cells) in 45 μL of IMDM supplemented with 10% FBS in a 384-well opaque plate. Wells containing only medium were used as a blank control. Test compounds (e.g., compounds of Formula (I) or (II)) were first serially diluted in DMSO then diluted 1:100 with IMDM+10% FBS. The final concentration of DMSO was 0.1% in each well. The cells were incubated for 72 hours at 37° C. and 5% CO2 before assaying with Cell Titer Glo 2.0 reagent.

Target C = assay: HiBiT protein abundance assay, Target C (K562 HiBiT knock-in); format: cell-based, human; conditions: HiBiT knock-in cells, 24 hours
Experimental: as §3, §4, §5

Target C mRNA = assay: Splicing RT-qPCR panel, Target C canonical junction (CJ) mRNA; format: cell-based, human; conditions: Homo sapiens, read-out: Target C CJ (decrease in CJ mRNA levels, IC50)
In short: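 A673 cells (DMEM, 10% FBS) or K562 cells (IMDM, 10% FBS) treated 24 h at 37 °C with an 11-point 3-fold dilution, top 10 uM, DMSO ≤0.25%. Canonical-junction mRNA quantified in lysates by RT-qPCR, normalised to GAPDH, GUSB or PPIA and to DMSO (2^−ΔΔCt), then converted to % response.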

SMN2 mRNA = assay: Splicing RT-qPCR panel, SMN2 canonical junction (CJ) mRNA; format: cell-based, human; conditions: Homo sapiens, read-out: SMN2 CJ (decrease in CJ mRNA levels, IC50)
Experimental: Compounds described herein were used to modulate RNA transcript abundance in cells. The expression of a target mRNA was measured by detecting the formation of an exon-exon junction in the canonical transcript (CJ). A compound mediated exon-inclusion event was detected by observing an increase in formation of a new junction with an alternative exon (AJ). Real-time qPCR assays were used to detect these splicing switches and interrogate the potency of various compounds towards different target genes. A high-throughput real time quantitative PCR (RT-qPCR) assay was developed to measure these two isoforms of the mRNA (CJ and AJ) for exemplary genes, such as HTT, SMN2, and MYB, together with a control housekeeping gene, GAPDH or GUSB or PPIA, used for normalization. Briefly, the A673 or K562 cell line was treated with various compounds described herein (e.g., compounds of Formula (D). After treatment, the levels of the HTT, MYB, or SMN2 mRNA targets were determined from each sample of cell lysate by cDNA synthesis followed by qPCR.
The A673 cell line was cultured in DMEM with 10% FBS. Cells were diluted with full growth media and plated in a 96-well plate (15,000 cells in 100 ul media per well). The plate was incubated at 37° C. with 5% CO2 for 24 hours to allow cells to adhere. An 11-point 3-fold serial dilution of the compounds was made in DMSO then diluted in media in an intermediate plate. Compounds were transferred from the intermediate plate to the cell plate with the top dose at a final concentration of 10 uM in the well. Final DMSO concentration was kept at or below 0.25%. The cell plate was returned to the incubator at 37° C. with 5% CO2 for an additional 24 hours.
The K562 cell line was cultured in IMDM with 10% FBS. For K562, cells were diluted with full growth media and plated in either a 96-well plate (50,000 cells in 50 uL media per well) or a 384-well plate (8,000-40,000 cells in 45 uL media per well). An 11-point 3-fold serial dilution of the compounds were made in DMSO then diluted in media in an intermediate plate. Compound was transferred from the intermediate plate to the cell plate with the top dose at a final concentration of 10 uM in the well. Final DMSO concentration was kept at or below 0.25%. Final volume was 100 uL for 96-well plate and 50 uL for 384-well plate. The cell plate was then placed in an incubator at 37° C. with 5% CO2 for 24 hours.
The cells were then gently washed with 50 uL-100 uL cold PBS before proceeding to addition of lysis buffer. 30 uL-50 μL of room temperature lysis buffer with DNAse I (and optionally RNAsin) was added to each well. Cells were shaken/mixed thoroughly at room temperature for 5-10 minutes for lysis to take place and then 3 uL-5 μL of room temperature stop solution was added and wells were shaken/mixed again. After 2-5 minutes, the cell lysate plate was transferred to ice for RT-qPCR reaction setup. The lysates could also be frozen at −80° C. for later use.
In some cases, a direct lysis buffer was used. An appropriate volume of 3× lysis buffer (10 mM Tris, 150 mM NaCl, 1.5%-2.5% Igepal and 0.1-1 U/uL RNAsin, pH 7.4) was directly added to either K562 or A673 cells in media and mixed by pipetting 3 times. The plates were then incubated at room temperature with shaking/rocking for 20-50 minutes to allow for lysis to take place. After this time, the cell lysate plate was transferred to ice to set up for the RT-qPCR reactions. The lysates could also be frozen at −80° C. for later use.
To set up 10 uL RT-qPCR reactions, cell lysates were transferred to 384-well qPCR plates containing the master mix according to the table below. The plates were sealed, gently vortexed, and spun down before the run. The volumes were adjusted accordingly in some instances where the reaction was carried in 20 μL. The table below summarizes the components of the RT-qPCR reactions:
The RT-qPCR reaction was performed using a QuantStudio (ThermoFisher) under the following fast cycling conditions. […]

MYB mRNA = assay: Splicing RT-qPCR assay, MYB canonical (CJ) and alternative (AJ) junction mRNA; format: cell-based, human; conditions: Homo sapiens; for IC50: canonical junction mRNA; for AC50: alternative junction mRNA, read-out: MYB AJ (AC50, increase in AJ mRNA)
In short: (§6)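 Cmpd 24 h, 37 °C/5% CO2; 11-pt 3x serial dilution from 10 uM final; DMSO max 0.25%. Cells: A673 (DMEM/10% FBS, pre-adhered 24 h) or K562 (IMDM/10% FBS). Lyse, DNase I, then 1-step RT-qPCR for CJ and AJ; housekeeping-normalized.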

HTT mRNA = assay: Splicing RT-qPCR assay, HTT canonical (CJ) and alternative (AJ) junction mRNA; format: cell-based, human; conditions: Homo sapiens; for IC50: canonical junction mRNA; for AC50: alternative junction mRNA, read-out: HTT AJ (AC50, increase in AJ mRNA)
In short: as §6

[1] = qPCR panel, read-out: MYB CJ (decrease in CJ mRNA levels, IC50)
[2] = RT-qPCR, A673 or K562 cells, 24 hours treatment
[3] = RT-qPCR, A673 or K562 cells, 24 hours treatment, read-out: MYB CJ (IC50, decrease in CJ mRNA)
[4] = 24 h, RT-qPCR, A673 or K562 cells, 24 hours treatment, read-out: HTT CJ (IC50, decrease in CJ mRNA)
[5] = qPCR panel, read-out: HTT CJ (decrease in CJ mRNA levels, IC50)

SMILES | IC50 (HiBiT-tagged HTT protein) | IC50 (HiBiT-tagged MYB protein) | IC50 (Target C) | IC50 (Target C mRNA) | IC50 (SMN2 mRNA) | IC50 (MYB mRNA; [1]) | IC50 (MYB mRNA; [3]) | IC50 (HTT mRNA; [4]) | IC50 (HTT mRNA; [5]) | Effect on Cell Viability, K562 (K562 cells) | AC50 (MYB mRNA; [2]) | AC50 (HTT mRNA; [2])
COc1nc(-c2cc(Cl)c3cc(N4C[C@H](C)N[C@@H](C)C4)cnc3n2)cn2cc(C)nc12 [Compound 403, 4-chloro-6-[(3S,5S)-3,5-dimethylpiperazin-1-yl]-2-{8-methoxy-2-methylimidazo[1,2-a]pyrazin-6-yl}-1,8-naphthyridine] |  |  |  | > 10000 nM | 100 to 1000 nM | 1000 to 10000 nM | 1000 to 10000 nM | > 10000 nM | > 10000 nM | C (1000-9999 nM) | 100 to 1000 nM | > 10000 nM
CN[C@H]1CCN(c2cnc3nc(-c4cc5cn(C)nc5c(C)c4O)ccc3c2)C1 [Compound 111] | < 100 nM | < 100 nM | < 100 nM |  |  |  |  |  |  | A (<100 nM) |  | 
Cc1cn2nc(-c3cc(Cl)c4cc(N5C[C@H](C)NC6(CC6)C5)cnc4n3)cc(C)c2n1 [Compound 400] |  |  |  | 1000 to 10000 nM | < 100 nM | 100 to 1000 nM | 100 to 1000 nM | 1000 to 10000 nM | 1000 to 10000 nM | C (1000-9999 nM) | 100 to 1000 nM | 1000 to 10000 nM

Further lines, with some results ahead:

IC50 (HiBiT-tagged HTT protein) | IC50 (HiBiT-tagged MYB protein) | IC50 (Target C) | IC50 (Target C mRNA) | IC50 (SMN2 mRNA) | IC50 (MYB mRNA; [1]) | IC50 (MYB mRNA; [3]) | IC50 (HTT mRNA; [4]) | IC50 (HTT mRNA; [5]) | SMILES | Effect on Cell Viability, K562 (K562 cells) | AC50 (MYB mRNA; [2]) | AC50 (HTT mRNA; [2])
< 100 nM | < 100 nM | < 100 nM |  |  |  |  |  |  | Cn1cc2cc(-c3cnc4cc(C5CCNCC5)ccc4n3)c(O)c(F)c2n1 [Compound 167, 7-fluoro-2-methyl-5-[6-(piperidin-4-yl)quinoxalin-2-yl]indazol-6-ol] | A (<100 nM) |  | 
 |  |  | > 10000 nM | < 100 nM | 100 to 1000 nM | 100 to 1000 nM | 1000 to 10000 nM | 1000 to 10000 nM | C[C@H]1CN(c2cnc3nc(-c4cc5cn(C)nc5cc4O)cc(Cl)c3c2)CC2(CC2)N1 [Compound 379] | B (100-1000 nM) | 100 to 1000 nM | 1000 to 10000 nM
 |  |  | > 10000 nM | < 100 nM | < 100 nM | < 100 nM | 100 to 1000 nM | 100 to 1000 nM | Cc1c(O)c(-c2cc(Cl)c3cc(N4C[C@H](C)NC5(CC5)C4)cnc3n2)cc2cn(C)nc12 [Compound 398] | B (100-1000 nM) | < 100 nM | 100 to 1000 nM
 |  |  | > 10000 nM | < 100 nM | 100 to 1000 nM | 100 to 1000 nM | 1000 to 10000 nM | 1000 to 10000 nM | C[C@@H]1CN(c2cnc3nc(-c4cc(F)c5nn(C)cc5c4)cc(Cl)c3c2)CC2(CC2)N1 [Compound 397] | C (1000-9999 nM) | 1000 to 10000 nM | > 10000 nM

Source: patent publication US20250326748A1, “COMPOUNDS AND METHODS FOR MODULATING SPLICING” (REMIX THERAPEUTICS INC., priority 2022, published 2025)
